Assays:
[1] = test system: stage IVB ovarian cancer; conditions: from July 2018, bicarbonate continued, before endoxan
[2] = Change in pH of urine after citrate salt or sodium bicarbonate in a person with acidic urine (Example 1)
[3] = 3 g once a day, compared to potassium citrate•sodium citrate hydrate

Compound: O=C([O-])O.[Na+] [sodium salt of hydrogencarbonate ions, sodium bicarbonate]
- value of CA125 [1]: 199
- side effect observed ([2]; 3 g once a day after a meal): the patient often burped
- rate of alkalization of urine [2, 3]: higher
- rate of urine turning acidic again [2, 3]: higher
- time during which the urine was kept alkaline [2, 3]: shorter
- pH of urine / ability to keep the urine alkaline ([2]; person with acidic urine, 6 tablets (3 g) orally once a day after a meal): poorer ability to keep the urine alkaline
